These are literature values, as cited in patent US4316892A, “2,6-C-Dimethyltyrosine^1 -D-amino acid^2 -ε-amino caproic and γ aminobutyric acid^5 derivatives of methionine enkephalin” (G. D. Searle & Co., priority 1980, dated 1982).

In one data set the test system is brain opiate receptor. The following applies: partially purified brain opiate receptor; Bradbury et al.
For data set [1] the following is noted: bioassays for opiate activity.
The conditions of data set [2]: injected directly into the brain of the rat; Belluzi et al.

Regarding methionine enkephalin, the “binding to brain opiate receptor sites” value in the data set on brain opiate receptor is on record as “binds stereospecifically”. Besides, in data set [1], the opiate activity result is on record as “highly active”. The analgesic activity entry in data set [2] is listed as “weak, fleeting analgesic activity”.
